Where “and” joins values, the source holds several entries; their conditions need not be identical. Equal entries are not always repeated. Inconclusive results and toxic doses are left out. Rule as the data show it: active = T/C of 150% or more; inactive = T/C below 125%.
Test system: L1210 leukemia ip in BDF1 mice, survival T/C
Assay: NCI In Vivo Anticancer Drug Screen. Data for tumor model L1210 Leukemia (intraperitoneal) in B6D2F1 (BDF1) mice
Conditions: endpoint: mean survival time, higher = longer survival
How it was run: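 Mice bearing the transplanted tumor received compound or vehicle. Survival of the treated group was divided by that of the vehicle-treated control group to give the ratio.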

[1] = dose: 100.0 mg/kg/injection, schedule: Q01DX009 (ip), vehicle: Klucel (hydroxypropylcellulose) (HPC)
[2] = dose: 100.0 mg/kg/injection, schedule: Q04DX003 (ip), vehicle: Klucel (hydroxypropylcellulose) (HPC)
[3] = dose: 200.0 mg/kg/injection, schedule: Q01DX009 (ip), vehicle: Klucel (hydroxypropylcellulose) (HPC)
[4] = dose: 200.0 mg/kg/injection, schedule: Q04DX003 (ip), vehicle: Klucel (hydroxypropylcellulose) (HPC)
[5] = dose: 400.0 mg/kg/injection, schedule: Q04DX003 (ip), vehicle: Klucel (hydroxypropylcellulose) (HPC)
[6] = dose: 100.0 mg/kg/injection, schedule: Q04DX003 (ip), vehicle: saline with Tween-80
[7] = dose: 200.0 mg/kg/injection, schedule: Q04DX003 (ip), vehicle: saline with Tween-80

Measured: T/C

c1cc2c(cc1C1SCSCS1)OCO2
inactive: [1] 98 % of control | [2] 96 % of control | [3] 92 % of control | [4] 98 % of control | dose: 400.0 mg/kg/injection, schedule: Q01DX009 (ip), vehicle: Klucel (hydroxypropylcellulose) (HPC) 90 % of control | [5] 98 % of control

O=C(O)c1ccnc(C(=O)O)c1
inactive: dose: 100.0 mg/kg/injection, schedule: Q01DX009 (ip), vehicle: saline 89 % of control | dose: 100.0 mg/kg/injection, schedule: Q04DX003 (ip), vehicle: saline sonified 98 % of control | dose: 200.0 mg/kg/injection, schedule: Q01DX009 (ip), vehicle: saline 93 % of control | dose: 200.0 mg/kg/injection, schedule: Q04DX003 (ip), vehicle: saline sonified 93 % of control | dose: 400.0 mg/kg/injection, schedule: Q01DX009 (ip), vehicle: saline 97 % of control | dose: 400.0 mg/kg/injection, schedule: Q04DX003 (ip), vehicle: saline sonified 92 % of control

C1=CC2(CCCC1)OCCO2
inactive: [6] 100 % of control | [7] 97 % of control | dose: 400.0 mg/kg/injection, schedule: Q04DX003 (ip), vehicle: saline with Tween-80 108 % of control

Cc1ccc(-c2nc3ccccc3c(=O)o2)cc1
inactive: dose: 50.0 mg/kg/injection, schedule: Q01DX009 (ip), vehicle: gum acacia 93 % of control and 100 % of control | dose: 100.0 mg/kg/injection, schedule: Q01DX009 (ip), vehicle: gum acacia 93 % of control and 100 % of control | dose: 100.0 mg/kg/injection, schedule: Q04DX003 (ip), vehicle: gum acacia 106 % of control | dose: 200.0 mg/kg/injection, schedule: Q04DX003 (ip), vehicle: gum acacia 88 % of control

CCCCNc1c(NCCCC)c(=O)c1=O
inactive: [2] 90 % of control | [4] 90 % of control | [5] 91 % of control

Nc1nnnc2c1ncn2C1OC(CO)C(O)C1O (stereo not given)
inactive: dose: 1.6 mg/kg/injection, schedule: Q01DX009 (ip), vehicle: saline 120 % of control | dose: 2.8 mg/kg/injection, schedule: Q01DX009 (ip), vehicle: saline 108 % of control | dose: 4.8 mg/kg/injection, schedule: Q01DX009 (ip), vehicle: saline 117 % of control | dose: 9.5 mg/kg/injection, schedule: Q01DX001 (ip), vehicle: saline 106 % of control | dose: 12.5 mg/kg/injection, schedule: Q04DX002 (ip), vehicle: saline 92 % of control | dose: 14.0 mg/kg/injection, schedule: Q01DX009 (ip), vehicle: saline 123 % of control | dose: 19.0 mg/kg/injection, schedule: Q01DX001 (ip), vehicle: saline 103 % of control and 117 % of control | dose: 25.0 mg/kg/injection, schedule: Q04DX002 (ip), vehicle: saline 100 % of control | dose: 38.0 mg/kg/injection, schedule: Q01DX001 (ip), vehicle: saline 106 % of control and 120 % of control | dose: 38.0 mg/kg/injection, schedule: Q01DX009 (ip), vehicle: saline 105 % of control | dose: 50.0 mg/kg/injection, schedule: Q04DX002 (ip), vehicle: saline 103 % of control | dose: 75.0 mg/kg/injection, schedule: Q01DX001 (ip), vehicle: saline 106 % of control

O=C1CN=C(c2ccccc2Cl)c2cc(Cl)ccc2N1
inactive: dose: 12.5 mg/kg/injection, schedule: Q01DX009 (ip), vehicle: Klucel (hydroxypropylcellulose) (HPC) 114 % of control | dose: 25.0 mg/kg/injection, schedule: Q01DX009 (ip), vehicle: Klucel (hydroxypropylcellulose) (HPC) 95 % of control | dose: 25.0 mg/kg/injection, schedule: Q04DX003 (ip), vehicle: Klucel (hydroxypropylcellulose) (HPC) 100 % of control | dose: 50.0 mg/kg/injection, schedule: Q01DX009 (ip), vehicle: Klucel (hydroxypropylcellulose) (HPC) 106 % of control | dose: 50.0 mg/kg/injection, schedule: Q04DX003 (ip), vehicle: Klucel (hydroxypropylcellulose) (HPC) 105 % of control | [1] 97 % of control | [2] 100 % of control | [3] 103 % of control | [4] 120 % of control

O=C(Nc1ccc(Cl)cc1)Nc1ccc(Cl)cc1
inactive: [6] 91 % of control | [7] 91 % of control
